From paper PMC9873984, “Membrane cholesterol regulates inhibition and substrate transport by the glycine transporter, GlyT2” (Life Science Alliance, 2023)
Positions count from the first letter of the chain named.

Tests used:
GlyT2 Y430F mutant = molecular target: T1, GlyT2 Y430F mutant (Homo sapiens, UniProt Q9Y345, Y430F); assay: Inhibitor washout time course (reversibility); type: cell-based; set-up: expressed in transfected cells; host or cells: Xenopus laevis oocytes injected with mutant RNA (pOTV vector)
T1 sequence (Q9Y345 1-797 Y430F): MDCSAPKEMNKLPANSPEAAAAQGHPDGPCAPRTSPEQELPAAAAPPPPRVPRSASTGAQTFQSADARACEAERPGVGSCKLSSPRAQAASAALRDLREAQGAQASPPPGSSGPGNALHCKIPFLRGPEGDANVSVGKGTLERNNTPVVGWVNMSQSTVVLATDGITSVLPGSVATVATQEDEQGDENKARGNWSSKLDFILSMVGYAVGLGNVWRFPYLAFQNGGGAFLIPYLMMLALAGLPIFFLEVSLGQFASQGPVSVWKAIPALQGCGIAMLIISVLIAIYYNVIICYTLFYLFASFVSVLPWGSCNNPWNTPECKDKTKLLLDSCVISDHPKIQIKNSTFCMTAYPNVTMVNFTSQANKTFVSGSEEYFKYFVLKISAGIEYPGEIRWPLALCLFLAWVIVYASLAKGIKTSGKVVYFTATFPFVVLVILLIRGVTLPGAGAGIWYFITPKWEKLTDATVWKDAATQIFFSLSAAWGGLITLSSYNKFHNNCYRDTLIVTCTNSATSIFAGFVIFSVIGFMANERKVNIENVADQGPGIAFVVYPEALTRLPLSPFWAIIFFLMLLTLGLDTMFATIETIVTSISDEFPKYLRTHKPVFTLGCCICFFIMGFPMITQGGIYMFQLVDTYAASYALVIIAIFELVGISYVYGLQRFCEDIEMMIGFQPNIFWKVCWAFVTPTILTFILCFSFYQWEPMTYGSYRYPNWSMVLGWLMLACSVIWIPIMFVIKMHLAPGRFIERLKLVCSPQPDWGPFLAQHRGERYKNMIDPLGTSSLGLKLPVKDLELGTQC
Method: (§1) Reversibility of GlyT2 inhibitors was determined by applying an EC50 concentration of glycine followed by co-application of the inhibitor at an IC50 concentration once a stable current had been achieved. Inhibitors were applied for 4 min as this was sufficient time to produce substantial inhibition for each compound and allowed for their direct comparison. At the conclusion of 4 min (time 0), ND96 buffer was perfused through the recording chamber to wash the oocyte. […] Transport currents were normalized to glycine currents in the absence of inhibitor and converted to % recovery values via Y=It−It=0/Imax−It=0, where Y is % recovery, I is current in nA, Imax is the maximal current produced by the glycine EC50, and t is time in minutes. Washout kinetics were then determined by fitting % recovery values to the first-order rate equation: Y=(Y0−Plateau).e^(−Kt)+Plateau, where Y is the % recovery, Y0 is the point, which crosses the Y-axis (constrained to 0) and increases to the plateau (constrained to between 0 and 100), K is the rate constant (1/t), and t is time in minutes. […] Because of the slowly […] nature of the inhibitors, washout time courses involving cyclodextrin treatment could not be performed on the same cell. […] As these experiments could not occur on the same cell, differences in half-life and maximal recovery were analysed via an unpaired two-tailed t test.

GlyT2 Y430L mutant = molecular target: T2, GlyT2 Y430L mutant (Homo sapiens, UniProt Q9Y345, Y430L); assay: Inhibitor washout time course (reversibility); type: cell-based; set-up: expressed in transfected cells; host or cells: Xenopus laevis oocytes injected with mutant RNA (pOTV vector)
T2 sequence (Q9Y345 1-797 Y430L): T1 sequence (Q9Y345 1-797 Y430F) with F430L
Method: as §1

[1] = washout after 4 min IC50 concentration

SMILES | Recovery at 30 Min (GlyT2 Y430F mutant; [1]) | Recovery at 30 Min (GlyT2 Y430L mutant; [1]) | Reduction in recovery of current 30 min after application, vs WT (GlyT2 Y430F mutant) | Increase in recovery of current 30 min after application, vs WT (GlyT2 Y430L mutant) | Increase in recovery after 30 min, vs WT (GlyT2 Y430F mutant) | Half-life (transport current recovery) (GlyT2 Y430F mutant; [1]) | Half-life (transport current recovery) (GlyT2 Y430L mutant; [1])
CCCCCCCC/C=C\CCCCCCCC(=O)O[C@H](CC(=O)[O-])C[N+](C)(C)C [Oleoyl-L-Carnitine, oleoyl-L-carnitine] | 24.7% | 80.6% | – | – | – | – | –
CCCCCCCC/C=C\CCCCCCCC(=O)N[C@@H](CC(C)C)C(=O)O [Oleoyl-L-Leucine, oleoyl-L-leucine] | 26.6 ± 2.3 % | 67.9 ± 2.3 % | 24.5% | 16.8% | – | – | –
CCCCCCCC/C=C\CCCCCCCC(=O)N[C@@H](CCCCN)C(=O)O [Oleoyl-L-Lysine, oleoyl-L-lysine] | 68.5 ± 2.1 % | 72.5 ± 2.1 % | – | 17.4% | 13.4% | – | –
CCCCCCCC/C=C\CCCCCCCC(=O)N[C@@H](Cc1c[nH]c2ccccc12)C(=O)O [Oleoyl-L-Tryptophan, oleoyl-L-tryptophan] | No Recovery | No Recovery | – | – | – | No Recovery | No Recovery
